# Measured values: ChEMBL document CHEMBL4130565, “Consequences of Depsipeptide Substitution on the ClpP Activation Activity of Antibacterial Acyldepsipeptides” (ACS Med Chem Lett, 2017)
# Values joined by “and” are separate entries in the source; they are usually repeats but may differ in a detail not shown here. Equal entries are not always repeated. Where a SMILES comes first, the peptide text is derived from it. Bridges are numbered along the chain shown (N, C = ends). [ ]: non-standard residue; d: D form. The star is where a group is joined. Phe(3,5-F2) = N[C@@H](Cc1cc(F)cc(F)c1)C(=O)O; Heptenoyl(2E) = CCCC/C=C/C(=O)*; NMeA = CN[C@@H](C)C(=O)O; Dap = NC[C@H](N)C(=O)O
# Experiments:
# [1] = target: ATP-dependent Clp protease proteolytic subunit (Bacillus subtilis (strain 168)) (UniProt P80244); test: Activation of Bacillus subtilis ClpP expressed in Escherichia coli BL21(DE3) using Abz-DFAPKMALVPYNO2 as substrate pretreated for 15 mins followed by substrate addition measured every 30 mins for 2 hrs by fluorescence assay
# [2] = target: ATP-dependent Clp protease proteolytic subunit (Bacillus subtilis (strain 168)) (UniProt P80244); test: Stabilization of Bacillus subtilis ClpP assessed as change in melting temperature at 50 uM after 30 mins by SYPRO orange protein gel staining based FRET analysis
# [3] = tested on: Bacillus subtilis; test: Antibacterial activity against Bacillus subtilis ATCC 6051 after 16 hrs by microdilution method; format: functional; conditions: ATCC 6051, 16 h
# [4] = Half life in CD3OD assessed as hydrogen-deuterium exchange by 1H-NMR analysis; format: physicochemical
# ATP-dependent Clp protease proteolytic subunit (Bacillus subtilis (strain 168)), sequence (P80244 whole entry, looked up): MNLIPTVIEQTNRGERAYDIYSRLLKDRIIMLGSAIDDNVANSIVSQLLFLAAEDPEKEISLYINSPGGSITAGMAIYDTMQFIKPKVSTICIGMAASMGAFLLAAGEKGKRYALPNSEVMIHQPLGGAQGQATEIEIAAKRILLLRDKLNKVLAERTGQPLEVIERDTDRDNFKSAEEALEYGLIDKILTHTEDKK
compound,measurement,setting,value
CCCC/C=C/C(=O)N[C@@H](Cc1cc(F)cc(F)c1)C(=O)N[C@H]1CN(C)C(=O)[C@@H]2CCCN2C(=O)[C@H](C)NC(=O)[C@H](C)N(C)C(=O)[C@@H]2CCCN2C1=O,Kapp,[1],4.39 µM
same,ΔTm,[2],12.7 °C
same,MIC,[3],> 25 µM and > 18.6 µg/mL
same,half-life,[4],< 4 min
"CCCC/C=C/C(=O)N[C@@H](Cc1cc(F)cc(F)c1)C(=O)N[C@H]1COC(=O)[C@@H]2CCCN2C(=O)[C@H](C)NC(=O)[C@H](C)N(C)C(=O)[C@@H]2CCCN2C1=O ({Heptenoyl(2E)}-[Phe(3,5-F2)]SP[NMeA]AP; ester 2-C)",Kapp,[1],0.037 µM
same,ΔTm,[2],29.1 °C
same,MIC,[3],0.037 µM and 0.027 µg/mL
same,half-life,[4],38 min
"CCCC/C=C/C(=O)N[C@@H](Cc1cc(F)cc(F)c1)C(=O)N[C@H]1CNC(=O)[C@@H]2CCCN2C(=O)[C@H](C)NC(=O)[C@H](C)N(C)C(=O)[C@@H]2CCCN2C1=O ({Heptenoyl(2E)}-[Phe(3,5-F2)][Dap]P[NMeA]AP; lactam 2-C)",Kapp,[1],0.085 µM
same,ΔTm,[2],22.8 °C
same,MIC,[3],6.25 µM and 4.6 µg/mL
same,half-life,[4],< 4 min
